Experiment: xn = mol fraction of the nth substance listed
Conditions: Liquid, Vibrating tube method

COC(=O)c1ccccc1 [methyl benzoate] + CCCCCCO
mass density [kg/m3]
Conditions	x1 = 0.1004	x1 = 0.2007	x1 = 0.3007	x1 = 0.4013	x1 = 0.5005	x1 = 0.6009	x1 = 0.7	x1 = 0.8008	x1 = 0.9009
338.15 K, 45000 kPa	–	–	–	–	945.5	971.4	997.1	1023.3	1049.5
338.15 K, 50000 kPa	845.7	871.2	897	922.9	948.5	974.4	1000.1	1026.4	1052.5
338.15 K, 55000 kPa	848.6	874.1	899.9	925.8	951.4	977.4	1003.1	1029.3	1055.5
338.15 K, 60000 kPa	851.4	876.8	902.8	928.7	954.3	980.1	1005.8	1032	1058.2
348.15 K, 100 kPa	802.6	827.8	853.4	879.1	904.6	930.4	956.1	982.5	1008.8
348.15 K, 1000 kPa	803.3	828.6	854.2	879.9	905.4	931.3	956.9	983.2	1009.5
348.15 K, 5000 kPa	807	832.2	857.7	883.4	908.8	934.7	960.3	986.6	1012.9
348.15 K, 10000 kPa	811.2	836.4	861.9	887.6	913	938.8	964.4	990.7	1016.9
348.15 K, 15000 kPa	815.2	840.4	865.9	891.4	917	942.8	968.4	994.6	1020.7
348.15 K, 20000 kPa	819	844.2	869.7	895.4	920.8	946.6	972.1	998.3	1024.4
348.15 K, 25000 kPa	822.7	847.9	873.4	899.1	924.5	950.2	975.8	1001.9	1028
348.15 K, 30000 kPa	826.2	851.4	877	902.6	928	953.8	979.3	1005.4	1031.5
348.15 K, 35000 kPa	829.6	854.8	880.4	906	931.4	957.2	982.7	1008.9	1034.9
348.15 K, 40000 kPa	832.9	858.1	883.7	909.3	934.7	960.5	986	1012.2	1038.2
348.15 K, 45000 kPa	836.1	861.3	886.9	912.5	938	963.7	989.3	1015.4	1041.4
348.15 K, 50000 kPa	839.1	864.4	890	915.7	941.1	966.9	992.4	1018.5	1044.5
348.15 K, 55000 kPa	842.1	867.4	893	918.7	944.2	969.9	995.5	1021.6	1047.6
348.15 K, 60000 kPa	844.9	870.2	895.8	921.5	947	972.8	998.2	1024.6	1050.4
358.15 K, 100 kPa	794.1	819.1	844.4	869.9	895.3	921	946.6	972.8	999
358.15 K, 1000 kPa	795	820	845.3	870.8	896.1	921.7	947.4	973.6	999.8
358.15 K, 5000 kPa	798.7	823.7	849	874.5	899.8	925.5	951	977.2	1003.3
358.15 K, 10000 kPa	803.1	828.2	853.5	878.9	904.2	929.9	955.3	981.4	1007.5
358.15 K, 15000 kPa	807.4	832.4	857.7	883.1	908.4	934	959.5	985.5	1011.6
358.15 K, 20000 kPa	811.4	836.4	861.7	887.1	912.3	938	963.4	989.5	1015.5
358.15 K, 25000 kPa	815.3	840.3	865.6	891	916.2	941.8	967.3	993.3	1019.3
358.15 K, 30000 kPa	818.9	844	869.3	894.7	919.9	945.5	970.9	996.9	1022.9
358.15 K, 35000 kPa	822.4	847.6	872.8	898.3	923.5	949.1	974.5	1000.5	1026.5
358.15 K, 40000 kPa	825.9	851	876.3	901.7	926.9	952.6	978	1003.9	1029.9
358.15 K, 45000 kPa	829.2	854.3	879.6	905.1	930.3	956	981.3	1007.3	1033.2
358.15 K, 50000 kPa	832.4	857.5	882.9	908.3	933.6	959.3	984.6	1010.6	1036.5
358.15 K, 55000 kPa	835.5	860.7	886	911.5	936.7	962.4	987.8	1013.7	1039.7
358.15 K, 60000 kPa	838.5	863.5	889.1	914.4	939.8	965.3	990.7	1016.9	1042.6

Source: the NIST ThermoML archive (doi:10.1016/j.jct.2011.02.008)
